Tested on: layer V pyramidal neurons
Assay: Whole cell recordings, layer V prelimbic cortex neurons, WT mice
Format: cell-based, mouse
Conditions: glycine 1 mM
Experimental: FIGS. 15A-15H. Effect of glycine and taurine on excitability of layer V neurons and membrane properties of layer II/III neurons in wild type and GPR158 knockout mice. A) Representative traces of voltage responses to a 200 pA current ramp injection obtained from layer V pyramidal neurons in WT mice under control conditions and during bath application of glycine (1 mM). B) Quantification of glycine effects on neuronal excitability by number of action potentials fired in response to 200 pA current ramp under control condition and glycine application (n=4 neurons/3 mice). Nonparametric t-test; Wilcoxon test, ns=p>0.05. C) Quantification of glycine effects on neuronal excitability by rheobase current under control condition and glycine application (n=4 neurons/3 mice). Nonparametric t-test; Wilcoxon test, ns=p>0.05. […]
Electrophysiological recordings from layer II-III and layer V neurons of the prelimbic cortex were performed with C57Bl6 mice of either sex aged between 6-12 weeks. […] The Rheobase current was defined as the minimum current necessary to elicit the first AP and changes in neuronal excitability were assessed by counting the number of spikes evoked in response to 1-s depolarizing ramp ranging from 0 to 200 pA with a 20-s intertrial interval. […]

## NCC(=O)O [glycine]
  intrinsic excitability of layer V neurons: did not produce any changes
Layer V
  resting membrane potential: ns
